{
  "source": "paper PMC12051620",
  "about": "“Molecular basis underlying the specificity of an antagonist AA92593 for mammalian melanopsins” (The Journal of Biological Chemistry, 2025)",
  "key": {"[1]": {"target": "T1, human melanopsin F94^2.61C/S188^ECL2T/W189^ECL2F/S269^6.52A mutant (Homo sapiens, UniProt Q9UHM6, F127C/S222T/S313A/W223F)", "T1 construct": "expressed in transfected cells; host or cells: COS-1", "T1 sequence (Q9UHM6 1-384 F127C/S222T/W223F/S313A)": "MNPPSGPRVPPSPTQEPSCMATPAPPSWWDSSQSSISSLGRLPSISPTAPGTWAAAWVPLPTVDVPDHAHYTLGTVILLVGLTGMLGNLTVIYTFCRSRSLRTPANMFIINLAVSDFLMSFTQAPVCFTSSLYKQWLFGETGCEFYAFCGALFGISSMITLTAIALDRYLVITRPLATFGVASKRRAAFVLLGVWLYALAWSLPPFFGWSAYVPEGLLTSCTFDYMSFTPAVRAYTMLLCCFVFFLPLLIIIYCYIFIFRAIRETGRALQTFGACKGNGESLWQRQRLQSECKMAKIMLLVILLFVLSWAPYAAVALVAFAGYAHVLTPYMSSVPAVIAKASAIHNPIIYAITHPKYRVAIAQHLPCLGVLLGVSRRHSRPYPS", "test": "GsX GloSensor assay with Gsα/q11", "format": "cell-based", "conditions": "up to 16.7 μM AA92593, COS-1 cells", "from_the_text": "(§1) Next, we attempted to render human melanopsin more ineffective to AA92593 by combining W189^ECL2F with F94^2.61C/S188^ECL2T/S269^6.52A. […] We note that the loss of sensitivity for AA92593 by the quadruple substitutions was not due to the substitutions-induced changes in absorption spectrum or localization in COS-1 cells. […] In the GloSensor assay, a small difference in G protein activation between the triple and quadruple mutants in the presence of AA92593 would be amplified through the second messenger signaling cascade.\n(§2) For GloSensor assay, opsins, GloSensor assay sensor (coded by pGlo-22F), and NanoBiT-tagged G proteins were transiently expressed in COS-1 cells (kindly provided from Dr David Farrens, Oregon Health and Science University) using PEI as described previously ([24], [52]). For the GsX GloSensor assay ([12], [13]), each well of a 96-well assay plate (Corning) was transfected with 50 ng opsin plasmid, 16.7 ng G protein plasmid, 50 ng pGlo-22F plasmid (Promega), and 500 ng PEI in 25 μl Opti-mem and 75 μl Dulbecco's modified Eagle's medium (D-MEM). […] For GFP-fluorescence microscopy, a 35-mm cell culture dish (IWAKI) was transfected with 2 μg melanopsin-GFP plasmid and 8 μg PEI in 400 μl Opti-mem and 1.2 ml D-MEM. […]"}, "[2]": {"tested_on": "mouse melanopsin L207^5.42F mutant", "test": "GsX GloSensor assay with Gsα/q11", "format": "cell-based", "conditions": "16.7 μM AA92593, COS-1 cells", "from_the_text": "as §1, §2"}},
  "data": [
    {"compound": "COc1ccc(S(=O)(=O)N2CCCCC2)cc1C", "note": "[AA92593]", "values": [
      {"measurement": "sensitivity to AA92593", "setting": "[1]", "value": "almost completely lost sensitivity"},
      {"measurement": "increased susceptibility to the antagonist vs WT", "setting": "[2]", "value": "~26", "unit": "%"}
    ]}
  ]
}
